Test results as given in US20190054041A1, “USE OF NOOTKATONE” (INSTITUTE OF TROPICAL BIOSCIENCE AND BIOTECHOLOGY CHINESE …, priority 2016, published 2019).

What was measured:
patients with depression = test: Clinical efficacy observation by reduction rate of HAM-D; format: in vivo, human; details: 40 patients, oral 1.5 mg nootkatone monomer/Kg/time, twice a day, 6 weeks
Source text: Forty patients were selected, wherein 20 were male and 20 were female, and their disease durations were from 1 month to 2 years. Diagnosis criteria of depression that conformed to Chinese Classification and Diagnostic Criteria of Mental Disorders scored […] according to the first 17 items in the Hamilton Depression Rating Scale (HAM-D) shown in Table 4. First-onset patients, or patients that had not taken antidepressants and antipsychotics and had not been subjected to electric shock therapy over the past week, and patients with depressive episodes of unipolar affective disorder, aged 20-50 years. Patients having depressive disorder caused by bipolar affective disorder and other causes, severe suicidal tendency, and severe abnormalities in laboratory tests (pregnant or lactating women) were eliminated.
Comment: 0 to 4 in the items of Standard for Evaluation and Point referred to the scores, and the standard for evaluation is: the total score <7 means normality; the total score between 7 and 17 means possible depression; the total score between 17 and 24 means definite depression; and the total score >24 means severe depression.
Nootkatone preparation was used to treat the 40 patients, and the administration manner was: orally taking, 1.5 mg nootkatone monomer/Kg/time, twice a day, and 6 weeks were one course of treatment. […] After 1 course of treatment, reduction rate of HAM-D was used to measure the curative efficacy of the traditional Chinese medicine on patients, reduction rate of HAM-D=(total scores before the treatment−total scores after the treatment)/total scores before the treatment×100%.
The standard of curative efficacy evaluation is hereinafter:
cure: reduction rate of HAMD is >75%;
improved: reduction rate of HAMD is from 25% to […];
invalid: reduction rate of HAMD is <25%.

ICR mice [1] = details: intragastric once a day for 14 days, nootkatone 1-2 mg/Kg, Prozac 20 mg/Kg
ICR mice [2] = test: Tail suspension test of mice; details: once a day for 14 days, 1.5 h after last administration, last 4 min of 6 min, blank control 151.1 ± 20.1, **P < 0.01
ICR mice [3] = test: Forced swimming test of mice; details: once a day for 14 days, 1.5 h after last administration, last 4 min of 6 min, blank control 148.1 ± 18.9, **P < 0.01
ICR mice [4] = test: 5-HTP induced head twitching mouse model; details: once a day for 14 days, 150 mg/Kg 5-HTP i.p. 0.5 h after last administration, counted in 20 min, blank control 34.1 ± 18.1, **P < 0.01
[5] = 1 mg/Kg (small dose) intragastric
[6] = 1.5 mg/Kg (medium dose) intragastric
[7] = 2 mg/Kg (large dose) intragastric

Structure (SMILES) | Adverse reactions in patients (patients with depression) | Curative effective rate (patients with depression) | Share of patients invalid (reduction rate of HAMD <25%) (patients with depression; 2 cases) | Share of patients improved (reduction rate of HAMD from 25% to 50%) (patients with depression; 10 cases) | Share of patients cured (reduction rate of HAMD >75%) (patients with depression; 14 cases) | Share of patients significantly improved (reduction rate of HAMD from 51% to 75%) (patients with depression; 14 cases) | Toxicity judged from weight and fur appearance of mice (ICR mice [1]) | Immobility Time, tail suspension test (ICR mice [2]; [5]) | Immobility Time, tail suspension test (ICR mice [2]; [6]) | Immobility Time, tail suspension test (ICR mice [2]; [7]) | Immobility Time, forced swimming test (ICR mice [3]; [5]) | Immobility Time, forced swimming test (ICR mice [3]; [6]) | Immobility Time, forced swimming test (ICR mice [3]; [7]) | Head-Twitching Number (ICR mice [4]; [5]) | Head-Twitching Number (ICR mice [4]; [6]) | Head-Twitching Number (ICR mice [4]; [7]) | Weight of mice before administration, one week and 2 weeks after administration (ICR mice [1]) | Immobility Time, tail suspension test (ICR mice [2]; 20 mg/Kg intragastric) | Immobility Time, forced swimming test (ICR mice [3]; 20 mg/Kg intragastric) | Head-Twitching Number (ICR mice [4]; 20 mg/Kg intragastric)
C=C(C)[C@@H]1CCC2=CC(=O)C[C@@H](C)[C@]2(C)C1 [Nootkatone, nootkatone] | no case has adverse reactions | 95% | 5% | 25% | 35% | 35% | neither nootkatone nor the positive drug Prozac has toxicity | 84.0 ± 17.6** S | 80.2 ± 21.6** S | 75.1 ± 19.6** S | 74.0 ± 26.9** s | 70.2 ± 22.3** s | 66.1 ± 21.6** s | 58.0 ± 26.2** Time | 60.2 ± 25.1** Time | 63.1 ± 22.5** Time |  |  |  | 
CNCCC(Oc1ccc(C(F)(F)F)cc1)c1ccccc1 (centres unmarked) [Prozac, fluoxetine, reference compound] |  |  |  |  |  |  |  |  |  |  |  |  |  |  |  |  | no significant difference | 87.9 ± 22.0** S | 80.9 ± 20.4** s | 57.9 ± 10.4** Time
